Data on one compound can be found in patent publication US10682409B2, “Therapeutic treatment” (priority 2012, dated 2020).

Broadly, the half-life is the time in which the quantity being followed falls by half.

The conditions of data set [1]: cited from earlier work.
Data set [2] has as its system patient suffering from ADHD. Nature of the data set: Example 1: patient suffering from ADHD treated with and without an appetite stimulant (appetite, blood glucose, attentiveness by CGI-S and CGI-I). It is filed as in vivo, human. The source says: A patient suffering from ADHD is prescribed and administered an amphetamine to treat ADHD. The patient takes the amphetamine once a day in the morning or afternoon. […] As a result, the glucose level measured in the blood increases as shown in FIG. 1 and the patient's attentiveness recovers as measured by CGI-S and CGI-I. By taking the appetite stimulant during the time when the patient was awake, the patient increased their caloric intake during times when the patient needed to maintain their attentiveness in order to have reasonable cognition and/or social behaviour.

The conditions of data set [3]: cited from earlier work. This is another data set of the same source.
Data set [4] in a line: Examples 3-11: weight and height (velocity, percentile curve, course) of ADHD Patients A-H. It is filed as in vivo, human. As for the experimental part:
In an embodiment, a therapeutically effective amount of a therapeutic compound disclosed herein increases the weight or height of an individual is determined by an increase in the individual's weight or height velocity as compared to an individual nor receiving a therapeutic compound for appetite reduction. In an embodiment, weight and/or height velocity can be calculated by taking measurements of height and/or weight of an individual over a period of time and measuring an increase or decrease in an individual's height and/or weight over the period of time. In an embodiment, weight velocity is calculated by taking three time points, time 0 upon initiation of medication to treat ADHD, time 1 addition of an appetite stimulant, time 2 the last data point after initiation of combination treatment. In an embodiment, a formula to calculate weight and height velocity for stimulant alone is (weightT1−weight T0)/days from Time 0 to time 1. In an embodiment, a formula to calculate weight velocity for combination treatment is (weightT2−weight T1)/days from time 1 to time 2. In an embodiment, to evaluate whether weight velocity increased after addition of an appetite stimulant, the weight velocity of time 0 to time 1 is compared to the weight velocity from time 1 to time 2. In an embodiment, height velocity is calculated by taking three time points, time 0 upon initiation of medication to treat ADHD, time 1 addition of an appetite stimulant, time 2 the last data point after initiation of combination treatment. The formula to calculate height velocity for stimulant alone is (weightT1−weight T0)/days from Time 0 to time 1. The formula to calculate height velocity for combination treatment is (weightT2−weight T1)/days from time 1 to time 2. In an embodiment, to evaluate whether height velocity increased after addition of an appetite stimulant, the height velocity of time 0 to time 1 is compared to the height velocity from time 1 to time 2.
Eight patients, identified as patients A-H, that came in suffering from ADHD were treated for ADHD. […] Each patient was then prescribed an appetite simulant to be taken along with the amphetamine or methylphenidate. The patients' weight, height and attentiveness were then followed during the course of treatment.
The age range of the patients was from 6-15 years of age, with a mean age at the start of treatment for ADHD of 8.4 years of age. The mean age at the start of the combination treatment wherein the patient was administered an amphetamine or methylphenidate and an appetite stimulant was 10.3 years of age. The mean treatment period for the eight patients was 1,108 days with a mean of 2.55 ADHD medication changes during the treatment period. Attentiveness in the eight patients was measured using CGI-S and CGI-I. Patients weight and height velocity were measured to identify a difference in weight and height gain prior to and after addition of an appetite stimulant to the treatment for ADHD. Weight velocity was calculated by taking three time points, time 0 upon initiation of medication to treat ADHD, time 1 addition of an appetite stimulant, time 2 the last data point after initiation of combination treatment. The formula to calculate weight velocity for stimulant alone is (weightT1−weight T0)/days from Time 0 to time 1. The formula to calculate weight velocity for combination treatment is (weightT2−weight T1)/days from time 1 to time 2.

The mark [5] stands for this setting: Patient A, Periactin 4 mg b.i.d. added to Concerta from day 661, FIG. 4.
The mark [6] stands for this setting: Patient G, Focalin XR 15 mg and Periactin 4 mg b.i.d. from day 546, FIG. 16.

Turning to `CN1CCC(=C2c3ccccc3C=Cc3ccccc32)CC1.Cl` [Periactin, 4-(5H-dibenzo[a,d]cyclohepten-5-ylidene)-1-methylpiperidine hydrochloride], the “effect in children suffering from ADHD (anecdotal evidence)” value in data set [1] (ADHD drug (amphetamine or methylphenidate) plus 4-8 mg cyproheptadine at night (Daviss 2004)) is “weight gain and excessive sleep”. For the same compound, the “effect on weight in studies” value in data set [1] (non-human animals or humans (Orthen-Gambill 1988)) was “weight gain”. In data set [1] (oral monotherapy for allergy), the side effects result is “weight gain and drowsiness”. Also, the “attentiveness as measured by CGI-S and CGI-I” value in data set [2] (amphetamine and Cyproheptadine once a day) is “recovers”. Further, in data set [2] (amphetamine and Cyproheptadine once a day in the morning or afternoon), the appetite result is on record as “resumes”. Further, in data set [2] (amphetamine and Cyproheptadine once a day, FIG. 1), the “glucose level measured in the blood” value is “increases”. Also, the “time to reach peak plasma levels” value in data set [3] (after administration) is 1 to 3 h. The half-life in data set [3] (in vivo) is 8 h. Further, the height course result in data set [4] (setting [5]) is “increase in height began to accelerate”; in data set [4] (Patient D, combination of Concerta and Periactin, lagged initiation, FIG. 10), “increased the growth rate”; in data set [4] (setting [6]), “began to gain height at an accelerated pace”. Besides, the weight course result in data set [4] (setting [5]) is listed as “began to gain weight”; in data set [4] (Patient B, Focalin XR 15 mg and Periactin 4 mg b.i.d. from day 865, FIG. 6), “began to gain weight”; in data set [4] (Patient B, Focalin XR 30 mg with Periactin, FIG. 6), “continued to increase”; in data set [4] (Patient C, Concerta 36 mg and Periactin 4 mg b.i.d. from day 350, FIG. 8) it was “began to gain weight”; in data set [4] (Patient D, Concerta 18 mg and Periactin 2 mg in the morning from day 23, FIG. 10) it was “began to gain weight at an accelerated pace”; in data set [4] (Patient D, Concerta increased to 27 mg with Periactin) it was “only a slight decrease in the ability of Patient D to continue to gain weight”. Moreover, the weight course entry in data set [4] (Patient E, Focalin XR 20 mg and Periactin 4 mg in the morning, FIG. 12) is reported as “began to gain weight at an accelerated pace”; in data set [4] (Patient F, Daytrana patch 30 mg and Periactin 2 mg b.i.d. from day 1547, FIG. 14) it was “began to gain weight at an accelerated pace”; in data set [4] (setting [6]), “continued to gain weight at a good pace”; in data set [4] (Patient H, Vvyanase 40 mg and Periactin 2 mg b.i.d. from day 109, FIG. 18), “began to gain weight”. In addition, the “pace of weight gain” value in data set [4] (Patient E, Periactin administered b.i.d. from day 836 with Focalin XR) is reported as “increased”; in data set [4] (Patient F, Periactin increased to 4 mg b.i.d. on day 1950 with Daytrana patch) it was “increased”. The “appetite when the dose of the ADHD drug was increased” value in data set [4] (individual patient of the example (B, D, E, F) on Periactin) was “without a concomitant loss of appetite”.
